The values that follow come from US9562057B2, “(Thieno[2,3-b][1,5]benzoxazepin-4-yl)piperazin-1-yl compounds as dual activity H1 inverse agonists/5-HT2A antagonists” (Eli Lilly and Company, priority 2013, dated 2017).

In series [1] the target is Dopamine D3 (Homo sapiens, UniProt P35462). The experiment in a line: Dopamine D3 binding. The source says:
(§1) Further, the compounds of the invention may be tested in binding assays and functional activity assays by well known methods for other physiologically important receptors such as, but not limited to, the hERG channel, other serotonin receptors (specifically 5-HT1B and 5-HT1D receptors, lack of agonist activity at 5-HT2B receptors, 5-HT2C, 5-HT5, 5-HT6, and 5-HT7 receptors), dopaminergic receptors (specifically D1, D2, and D3), GABAA receptors, adrenergic receptors and monoamine transporters.

Series [2] deals with Adrenergic alpha2B (Homo sapiens, UniProt P18089). As to the kind of experiment: Adrenergic alpha2B binding.
Text: as §1

For series [3], the target named is Serotonin Transporter (Homo sapiens, UniProt P31645). As to the kind of experiment: Serotonin transporter binding.
Text: as §1

The target in series [4] is T1, 5-HT2B (Homo sapiens, UniProt P41595). As to the kind of experiment: 5-HT2B agonist functional activity. The series is classed as biochemical. Particulars: agonist mode.
Text: as §1

Series [5] concerns the target 5-HT5 (Homo sapiens, UniProt P47898). As to the kind of experiment: 5-HT5 binding.
Text: as §1

Series [6] addresses T1, 5-HT2B. As to the kind of experiment: 5-HT2B binding.
Text: as §1

The target of series [7] is hERG Channel (Homo sapiens, UniProt Q12809). The experiment in a line: hERG channel inhibition. Particulars: inhibition at 10 μM.
Text: as §1
(The hERG channel carries a current that helps repolarise heart muscle cells.)

Series [8] deals with T2, recombinant 5-HT2A receptor (human) (Homo sapiens, UniProt P28223).
T2 construct: expressed in transfected cells; host or cells: AV-12
As to the kind of experiment: 5-HT2A competition binding assay ([3H]-Ketanserin, SPA). The protocol:
[^3H]-Ketanserin binding experiments are carried out in SPA 96-well format. Membranes used in this assay are prepared from AV-12 cells stably expressing recombinant 5-HT2A receptor (human). The incubation is initiated by the addition of a mixture of WGA YSi SPA beads (1 mg/well, Perkin Elmer (MA, USA), RPNQ0011) and 2 μg membranes to assay buffer (67 mM Tris, 0.5 mM EDTA; pH 7.6) containing 3.1 nM [^3H]-Ketanserin and varying concentrations of the test compound (10 point concentration response curves). Non-specific binding is determined in the presence of 20 μM 1-(1-naphthyl) piperazine. Samples are incubated for 4 hr. at room temperature (22° C.) and then read in a Microbeta® Trilux.
Binding data analysis Curves are evaluated using a 4-parameter logistic nonlinear equation to obtain the concentration of competitor causing 50% inhibition of radioligand binding (IC50). Equilibrium dissociation constants (Ki) are calculated according to the equation Ki=IC50/(1+L/Kd), where L equals the concentration of radioligand used in the experiment and Kd equals the equilibrium dissociation constant of the radioligand for the receptor, determined from standard saturation analysis or homologous competition experiments. Reported values for Ki, where n values are indicated, are shown as geometric mean±the standard error of the mean (SEM), with the number of replicate determinations indicated by n. […]

Series [9] concerns the target T3, 5-HT2A receptor (Mus musculus, UniProt P35363).
T3 construct: The in vivo 5-HT2A receptor antagonist activity; from tissue; host or cells: living C57BL/6J mice
As to the kind of experiment: Inhibition of DOI induced headshake activity. The series is classed as in vivo. Particulars: male C57BL/6J mice, 10 mg/kg PO, 3 mg/kg DOI, 60 min. pre-treatment. As to the method:
(see for example Bartoszyk G D, van Amsterdam C, Böttcher H, Seyfried C A. EMD 281014, a new selective serotonin 5-HT2A receptor antagonist. Eur J Pharmacol. 2003 473: 229-230.) Briefly, male C57BL/6J mice (20-25 g, Charles River) are housed in standard housing conditions ([…], 07.00 to 19.00 light phase, constant temperature (19-23° C.) and humidity (50%+/−10), ad lib food and water). Mice received either vehicle (0.25% Methyl cellulose), DOI (3 mg/kg in saline) or test compound at 10 mg/kg PO plus DOI (3 mg/kg in saline). Test compounds are individually evaluated in groups of four per experiment with n=4 for each compound, together with vehicle and DOI+vehicle (n=8). After a test compound pre-treatment time of 60 min. the mice receive either vehicle (saline) or 3 mg/kg DOI dosed subcutaneously, and are then placed into clear perspex observation chambers. […] The data is analyzed using an ANOVA and post-hoc Dunnet's Test. The compound of example 2 is tested essentially as described and is found to inhibit the DOI induced headshake response produced by 3 mg/kg DOI by 100% at 10 mg/kg.

The target in series [10] is 5-HT7 (Homo sapiens, UniProt P34969). The experiment in a line: 5-HT7 binding.
Text: as §1

The target in series [11] is Adrenergic alpha1B (Homo sapiens, UniProt P35368). As to the kind of experiment: Adrenergic alpha1B binding.
Text: as §1

Counter-ions that a name gives are not always drawn.

T1 sequence (P41595 whole entry, species assumed): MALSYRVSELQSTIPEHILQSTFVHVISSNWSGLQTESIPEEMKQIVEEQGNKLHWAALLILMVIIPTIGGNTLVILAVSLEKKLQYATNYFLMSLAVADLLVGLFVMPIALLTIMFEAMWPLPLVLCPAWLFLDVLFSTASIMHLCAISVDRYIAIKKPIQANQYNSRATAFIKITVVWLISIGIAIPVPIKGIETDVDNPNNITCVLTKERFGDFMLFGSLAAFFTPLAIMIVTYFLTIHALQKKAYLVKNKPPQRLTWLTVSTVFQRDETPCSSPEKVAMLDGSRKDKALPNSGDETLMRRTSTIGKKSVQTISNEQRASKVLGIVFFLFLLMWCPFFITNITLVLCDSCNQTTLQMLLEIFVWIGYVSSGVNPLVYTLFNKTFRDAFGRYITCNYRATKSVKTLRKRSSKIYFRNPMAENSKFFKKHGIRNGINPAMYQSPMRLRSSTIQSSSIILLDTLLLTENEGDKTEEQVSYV
Adrenergic alpha1B, sequence (P35368 whole entry): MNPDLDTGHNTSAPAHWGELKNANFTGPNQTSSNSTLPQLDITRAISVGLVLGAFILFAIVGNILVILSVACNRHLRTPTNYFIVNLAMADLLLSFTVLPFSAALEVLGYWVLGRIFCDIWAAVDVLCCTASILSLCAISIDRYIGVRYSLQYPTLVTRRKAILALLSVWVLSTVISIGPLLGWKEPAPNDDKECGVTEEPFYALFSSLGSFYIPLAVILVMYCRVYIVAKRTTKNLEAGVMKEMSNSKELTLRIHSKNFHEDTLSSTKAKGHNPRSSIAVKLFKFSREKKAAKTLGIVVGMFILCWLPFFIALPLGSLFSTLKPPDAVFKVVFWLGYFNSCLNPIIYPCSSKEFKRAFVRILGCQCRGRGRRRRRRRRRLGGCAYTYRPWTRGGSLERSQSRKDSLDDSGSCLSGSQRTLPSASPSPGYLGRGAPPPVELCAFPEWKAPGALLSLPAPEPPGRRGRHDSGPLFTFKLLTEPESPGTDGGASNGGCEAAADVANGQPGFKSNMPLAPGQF
T2 sequence (P28223 whole entry): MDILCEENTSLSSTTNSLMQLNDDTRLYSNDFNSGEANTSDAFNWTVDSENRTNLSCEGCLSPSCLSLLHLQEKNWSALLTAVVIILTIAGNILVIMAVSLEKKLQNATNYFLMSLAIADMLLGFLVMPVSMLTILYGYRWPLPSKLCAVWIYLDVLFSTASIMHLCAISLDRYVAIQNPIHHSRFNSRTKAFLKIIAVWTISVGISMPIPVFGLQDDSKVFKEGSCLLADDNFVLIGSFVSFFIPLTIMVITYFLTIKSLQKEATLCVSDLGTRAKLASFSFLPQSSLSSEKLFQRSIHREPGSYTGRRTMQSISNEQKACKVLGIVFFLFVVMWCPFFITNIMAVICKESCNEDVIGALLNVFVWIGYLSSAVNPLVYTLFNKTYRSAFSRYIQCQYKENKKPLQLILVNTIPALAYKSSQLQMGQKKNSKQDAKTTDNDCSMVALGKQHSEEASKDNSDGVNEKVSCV
Serotonin Transporter, sequence (P31645 whole entry): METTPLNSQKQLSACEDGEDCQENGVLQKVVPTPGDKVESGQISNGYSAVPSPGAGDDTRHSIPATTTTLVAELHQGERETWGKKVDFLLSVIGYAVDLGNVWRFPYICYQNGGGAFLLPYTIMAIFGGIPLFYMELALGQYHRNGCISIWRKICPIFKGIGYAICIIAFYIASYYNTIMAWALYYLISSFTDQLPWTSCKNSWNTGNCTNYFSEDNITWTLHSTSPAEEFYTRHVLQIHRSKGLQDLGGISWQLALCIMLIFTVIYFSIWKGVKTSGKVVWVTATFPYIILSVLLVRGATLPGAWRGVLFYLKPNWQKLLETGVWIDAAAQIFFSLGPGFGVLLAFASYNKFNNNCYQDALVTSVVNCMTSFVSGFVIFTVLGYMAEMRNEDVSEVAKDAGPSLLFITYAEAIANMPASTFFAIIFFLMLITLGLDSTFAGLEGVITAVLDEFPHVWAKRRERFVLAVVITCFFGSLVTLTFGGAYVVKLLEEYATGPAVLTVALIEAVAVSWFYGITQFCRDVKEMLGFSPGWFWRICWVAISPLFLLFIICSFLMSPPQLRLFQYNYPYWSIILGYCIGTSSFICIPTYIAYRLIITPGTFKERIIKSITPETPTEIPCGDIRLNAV
Adrenergic alpha2B, sequence (P18089 whole entry): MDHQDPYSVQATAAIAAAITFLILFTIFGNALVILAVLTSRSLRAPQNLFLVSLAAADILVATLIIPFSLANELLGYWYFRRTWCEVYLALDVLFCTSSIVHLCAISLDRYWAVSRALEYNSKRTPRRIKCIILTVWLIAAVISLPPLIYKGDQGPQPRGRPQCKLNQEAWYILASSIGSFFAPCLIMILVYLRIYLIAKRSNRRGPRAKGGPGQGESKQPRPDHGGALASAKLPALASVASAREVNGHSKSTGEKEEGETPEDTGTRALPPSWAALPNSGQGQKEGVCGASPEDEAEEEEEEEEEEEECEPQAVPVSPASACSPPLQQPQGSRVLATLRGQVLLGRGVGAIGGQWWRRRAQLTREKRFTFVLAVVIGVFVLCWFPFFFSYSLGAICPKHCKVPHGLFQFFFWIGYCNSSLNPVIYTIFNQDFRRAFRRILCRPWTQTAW
hERG Channel, sequence (Q12809 whole entry): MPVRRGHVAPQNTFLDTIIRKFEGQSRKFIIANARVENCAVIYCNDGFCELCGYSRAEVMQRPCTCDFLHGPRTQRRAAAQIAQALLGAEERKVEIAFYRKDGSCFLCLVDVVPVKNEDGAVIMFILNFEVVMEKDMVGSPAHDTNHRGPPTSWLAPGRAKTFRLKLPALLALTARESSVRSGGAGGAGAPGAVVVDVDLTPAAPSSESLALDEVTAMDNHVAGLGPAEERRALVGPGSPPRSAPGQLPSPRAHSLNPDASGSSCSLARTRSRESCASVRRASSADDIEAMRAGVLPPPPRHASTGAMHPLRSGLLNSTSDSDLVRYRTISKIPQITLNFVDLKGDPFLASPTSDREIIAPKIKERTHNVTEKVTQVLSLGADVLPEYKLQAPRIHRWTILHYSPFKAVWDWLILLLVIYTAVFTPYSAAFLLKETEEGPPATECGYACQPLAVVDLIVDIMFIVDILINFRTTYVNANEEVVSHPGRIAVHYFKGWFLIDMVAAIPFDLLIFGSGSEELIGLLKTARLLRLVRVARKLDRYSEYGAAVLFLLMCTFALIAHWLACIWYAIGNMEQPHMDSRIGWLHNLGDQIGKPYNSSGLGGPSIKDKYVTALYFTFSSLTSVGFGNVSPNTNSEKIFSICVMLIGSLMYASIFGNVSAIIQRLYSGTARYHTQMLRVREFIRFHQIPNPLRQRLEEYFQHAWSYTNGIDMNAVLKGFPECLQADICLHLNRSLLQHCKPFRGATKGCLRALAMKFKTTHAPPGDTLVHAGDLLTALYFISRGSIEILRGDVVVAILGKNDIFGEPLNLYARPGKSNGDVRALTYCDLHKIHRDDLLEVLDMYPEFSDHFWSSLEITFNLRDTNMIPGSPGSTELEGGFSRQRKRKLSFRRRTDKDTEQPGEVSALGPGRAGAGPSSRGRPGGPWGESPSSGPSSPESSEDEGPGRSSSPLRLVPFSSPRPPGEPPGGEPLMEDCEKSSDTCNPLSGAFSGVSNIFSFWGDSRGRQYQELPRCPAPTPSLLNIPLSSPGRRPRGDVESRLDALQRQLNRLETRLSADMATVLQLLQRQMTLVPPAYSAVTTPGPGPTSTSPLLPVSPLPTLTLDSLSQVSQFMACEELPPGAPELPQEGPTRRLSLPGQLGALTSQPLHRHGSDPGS
5-HT5, sequence (P47898 whole entry, species assumed): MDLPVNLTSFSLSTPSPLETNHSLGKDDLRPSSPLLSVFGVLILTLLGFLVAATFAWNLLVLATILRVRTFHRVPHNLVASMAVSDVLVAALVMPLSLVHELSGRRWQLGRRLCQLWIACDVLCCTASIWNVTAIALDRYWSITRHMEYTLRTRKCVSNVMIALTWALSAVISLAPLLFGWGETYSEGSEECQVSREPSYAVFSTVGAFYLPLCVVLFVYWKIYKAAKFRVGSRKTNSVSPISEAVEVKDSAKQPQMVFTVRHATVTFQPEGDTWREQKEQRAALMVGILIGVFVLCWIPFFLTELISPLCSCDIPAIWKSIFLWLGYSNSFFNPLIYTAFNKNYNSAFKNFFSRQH
5-HT7, sequence (P34969 whole entry, species assumed): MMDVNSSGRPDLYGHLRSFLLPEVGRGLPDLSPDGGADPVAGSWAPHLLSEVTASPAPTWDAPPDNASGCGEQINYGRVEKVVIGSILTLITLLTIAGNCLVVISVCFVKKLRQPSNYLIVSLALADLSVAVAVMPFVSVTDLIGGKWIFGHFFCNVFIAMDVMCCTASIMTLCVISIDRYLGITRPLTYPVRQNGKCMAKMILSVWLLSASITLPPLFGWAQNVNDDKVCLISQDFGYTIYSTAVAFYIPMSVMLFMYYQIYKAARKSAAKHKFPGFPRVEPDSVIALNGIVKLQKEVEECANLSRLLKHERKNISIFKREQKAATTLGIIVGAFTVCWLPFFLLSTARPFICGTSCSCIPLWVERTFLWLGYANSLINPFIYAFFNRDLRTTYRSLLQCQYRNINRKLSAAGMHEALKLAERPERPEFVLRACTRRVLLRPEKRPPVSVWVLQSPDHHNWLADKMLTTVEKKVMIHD
T3 sequence (P35363 whole entry): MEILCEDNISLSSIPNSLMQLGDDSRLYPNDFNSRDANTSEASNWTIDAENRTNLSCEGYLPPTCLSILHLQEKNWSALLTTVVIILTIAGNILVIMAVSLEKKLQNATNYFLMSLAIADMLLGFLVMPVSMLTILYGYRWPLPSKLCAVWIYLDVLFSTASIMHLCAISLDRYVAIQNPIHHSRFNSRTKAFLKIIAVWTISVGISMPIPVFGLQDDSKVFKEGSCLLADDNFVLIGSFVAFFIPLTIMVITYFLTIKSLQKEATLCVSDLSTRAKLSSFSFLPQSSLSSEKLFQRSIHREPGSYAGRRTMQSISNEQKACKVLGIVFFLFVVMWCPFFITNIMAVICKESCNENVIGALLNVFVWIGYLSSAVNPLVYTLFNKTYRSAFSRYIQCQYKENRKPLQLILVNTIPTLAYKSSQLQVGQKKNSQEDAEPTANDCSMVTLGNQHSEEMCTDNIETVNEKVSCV

The term Ki denotes the dissociation constant of the complex between target and ligand, obtained from inhibition or displacement. A word on the EC50: it is the concentration giving half of the maximal effect. Low readings indicate an effect from little substance, high ones a need for much substance. As to `Cc1ccc2c(c1)Oc1sc(C3CC3)cc1C(N1CCN(CC(C)(C)C(=O)O)CC1)=N2` [Example 2, 3-[4-(2-Cyclopropyl-8-methyl-thieno[2,3-b][1,5]benzoxazepin-4-yl)piperazin-1-yl]-2,2-dimethyl-propanoic acid dihydrochloride], the Ki in series [1] is more than 6.28 µM; in series [2], 1.06 µM; in series [3], more than 0.478 µM; in [5], 3.48 µM; in series [6], 0.118 µM; in series [8] it was 0.0102 µM. Moreover, the Ki was more than 2.06 µM in series [10] and more than 15.5 µM in [11]. In series [4], this molecule registered an EC50 of more than 10 µM. The “hERG Channel (μM)” value in series [7] is listed as 53% inhibition. The “inhibition of DOI induced headshake response” value in series [9] was 100%.
